Assay results as given in patent publication US20120115724A1, “METHOD OF CONTROLLING UNDESIRED VEGETATION” (SYNGENTA CROP PROTECTION LLC, priority 2009, published 2012).

Tests used:
Type in all cases: in vivo
[1] = system: XANST Xanthium strumarium; assay: Pre-emergence crop and weed test (Example 16); conditions: after 20 days
Protocol: (§1) Seeds of crop and representative weed species were sown in standard soil in pots. After cultivation for 1 day under controlled conditions in a glasshouse (at 22/16° C., day/night; 16 hours light; 65% humidity), the plants were sprayed. The spray solution was prepared by dissolving the technical active ingredient in acetone containing 10.56 wt % Emulsogen EL, 42.22 wt % N-methylpyrrolidone and 2.22 wt % DPG-monoethyl ether to give a 5% stock solution. This was then diluted with water containing 0.2% (v/v) of the adjuvant X-77 to give the desired treatment concentration.
(§2) The test plants were then grown on under controlled conditions in a glasshouse (at 22/16° C., day/night; 16 hours light; 65% humidity) and watered twice daily. After 20 days the test was evaluated (100=total damage to plant; 0=no damage to plant).
(§3) Species as for Post-Emergence Test.

SIDSP Sida spinosa [2] = assay: Pre-emergence crop and weed test (Example 16); conditions: after 20 days
Protocol: as §1, §2, §3

GLXMA Soybean [3] = assay: Pre-emergence crop and weed test (Example 16); conditions: after 20 days
Protocol: as §1, §2, §3

[4] = system: ABUTH Abutilon theophrasti; assay: Pre-emergence crop and weed test (Example 16); conditions: after 20 days
Protocol: as §1, §2, §3

GALAP Galium aparine [5] = assay: Pre-emergence crop and weed test (Example 16); conditions: after 20 days
Protocol: as §1, §2, §3

SINAR Sinapis arvensis [6] = assay: Pre-emergence crop and weed test (Example 16); conditions: after 20 days
Protocol: as §1, §2, §3

CHEAL Chenopodium album [7] = assay: Pre-emergence crop and weed test (Example 16); conditions: after 20 days
Protocol: as §1, §2, §3

[8] = system: AMARE Amaranthus retroflexus; assay: Pre-emergence crop and weed test (Example 16); conditions: after 20 days
Protocol: as §1, §2, §3

[9] = system: POLCO Polygonum convolvulus; assay: Pre-emergence crop and weed test (Example 16); conditions: after 20 days
Protocol: as §1, §2, §3

KCHSC Kochia scoparia [10] = assay: Pre-emergence crop and weed test (Example 16); conditions: after 20 days
Protocol: as §1, §2, §3

[11] = system: EPHHL Euphorbia heterophylla; assay: Pre-emergence crop and weed test (Example 16); conditions: after 20 days
Protocol: as §1, §2, §3

IPOHE Ipomoea hederacea [12] = assay: Pre-emergence crop and weed test (Example 16); conditions: after 20 days
Protocol: as §1, §2, §3

[13] = system: XANST Xanthium strumarium; assay: Post-emergence crop and weed test (Example 15); conditions: 360 h, after 15 days, read-out: Percentage damage XANST
Procedure, shortened: (§4)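 Plants grown 14 days in glasshouse pots (22/16 °C day/night, 16 h light, 65% humidity) were sprayed post-emergence with compound formulated as a 5% stock in acetone/Emulsogen EL/NMP/DPG-monoethyl ether, diluted in water with 0.2% X-77. Damage was scored after 15 days (0 = none, 100 = total).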

SIDSP Sida spinosa [14] = assay: Post-emergence crop and weed test (Example 15); conditions: 360 h, after 15 days, read-out: Percentage damage SIDSP
Procedure, shortened: as §4

GLXMA Soybean [15] = assay: Post-emergence crop and weed test (Example 15); conditions: Glycine max, 360 h, after 15 days, read-out: Percentage damage GLXMA
Procedure, shortened: as §4

[16] = system: ABUTH Abutilon theophrasti; assay: Post-emergence crop and weed test (Example 15); conditions: 360 h, after 15 days, read-out: Percentage damage ABUTH
Procedure, shortened: as §4

GALAP Galium aparine [17] = assay: Post-emergence crop and weed test (Example 15); conditions: 360 h, after 15 days, read-out: Percentage damage GALAP
Procedure, shortened: as §4

SINAR Sinapis arvensis [18] = assay: Post-emergence crop and weed test (Example 15); conditions: Mutarda arvensis, 360 h, after 15 days, read-out: Percentage damage SINAR
Procedure, shortened: as §4

[19] = system: AMARE Amaranthus retroflexus; assay: Post-emergence crop and weed test (Example 15); conditions: 360 h, after 15 days, read-out: Percentage damage AMARE
Procedure, shortened: as §4

[20] = system: POLCO Polygonum convolvulus; assay: Post-emergence crop and weed test (Example 15); conditions: Fallopia convolvulus, 360 h, after 15 days, read-out: Percentage damage POLCO
Procedure, shortened: as §4

KCHSC Kochia scoparia [21] = assay: Post-emergence crop and weed test (Example 15); conditions: Bassia scoparia, 360 h, after 15 days, read-out: Percentage damage KCHSC
Procedure, shortened: as §4

[22] = system: EPHHL Euphorbia heterophylla; assay: Post-emergence crop and weed test (Example 15); conditions: 360 h, after 15 days, read-out: Percentage damage EPHHL
Procedure, shortened: as §4

IPOHE Ipomoea hederacea [23] = assay: Post-emergence crop and weed test (Example 15); conditions: 360 h, after 15 days, read-out: Percentage damage IPOHE
Procedure, shortened: as §4

CHEAL Chenopodium album [24] = assay: Post-emergence crop and weed test (Example 15); conditions: 360 h, 125 g/ha, after 15 days, read-out: Percentage damage CHEAL
Procedure, shortened: as §4

VERPE Veronica persica = assay: Post-emergence crop and weed test (Example 15); conditions: 360 h, 125 g/ha, after 15 days, read-out: Percentage damage VERPE
Procedure, shortened: as §4

Compound: C=Cc1c(N)nc(-c2ccc(Cl)c(OC)c2F)nc1C(=O)OC [Compound 2, 4-Amino-2-(4-chloro-2-fluoro-3-methoxy-phenyl)-5-ethenyl-6-methoxy-carbonyl-pyrimidine]
- Percentage damage XANST ([1]; 15 g/ha): 0%
- Percentage damage SIDSP (SIDSP Sida spinosa [2]; 15 g/ha): 80%
- Percentage damage GLXMA (GLXMA Soybean [3]; 15 g/ha): 20%
- Percentage damage ABUTH ([4]; 15 g/ha): 40%
- Percentage damage GALAP (GALAP Galium aparine [5]; 15 g/ha): 100%
- Percentage damage SINAR (SINAR Sinapis arvensis [6]; 15 g/ha): 30%
- Percentage damage CHEAL (CHEAL Chenopodium album [7]; 15 g/ha): 70%
- Percentage damage AMARE ([8]; 15 g/ha): 40%
- Percentage damage POLCO ([9]; 15 g/ha): 20%
- Percentage damage KCHSC (KCHSC Kochia scoparia [10]; 15 g/ha): 100%
- Percentage damage EPHHL ([11]; 15 g/ha): 100%
- Percentage damage IPOHE (IPOHE Ipomoea hederacea [12]; 15 g/ha): 30%
- pest or weed control at 8 g/ha ([13]; 8 g/ha): 90%
- pest or weed control at 8 g/ha (SIDSP Sida spinosa [14]; 8 g/ha): 80%
- plant injury at 8 g/ha (GLXMA Soybean [15]; 8 g/ha): 60%
- pest or weed control at 8 g/ha ([16]; 8 g/ha): 80%
- pest or weed control at 8 g/ha (GALAP Galium aparine [17]; 8 g/ha): 80%
- pest or weed control at 8 g/ha (SINAR Sinapis arvensis [18]; 8 g/ha): 10%
- pest or weed control at 8 g/ha ([19]; 8 g/ha): 80%
- pest or weed control at 8 g/ha ([20]; 8 g/ha): 70%
- pest or weed control at 8 g/ha (KCHSC Kochia scoparia [21]; 8 g/ha): 30%
- pest or weed control at 8 g/ha ([22]; 8 g/ha): 90%
- pest or weed control at 8 g/ha (IPOHE Ipomoea hederacea [23]; 8 g/ha): 90%

Compound: COC(=O)c1nc(-c2ccc(Cl)c(OC)c2F)nc(NCc2ccco2)c1Cl [Ref. Ex. E, 5-Chloro-2-(4-chloro-2-fluoro-3-methoxyphenyl)-4-(furan-2-ylmethylamino)-6-methoxycarbonyl-pyrimidine, reference compound]
- Percentage damage XANST ([1]; 125 g/ha): 20%
- Percentage damage SIDSP (SIDSP Sida spinosa [2]; 125 g/ha): 70%
- Percentage damage GLXMA (GLXMA Soybean [3]; 125 g/ha): 10%
- Percentage damage ABUTH ([4]; 125 g/ha): 40%
- Percentage damage GALAP (GALAP Galium aparine [5]; 125 g/ha): 90%
- Percentage damage SINAR (SINAR Sinapis arvensis [6]; 125 g/ha): 70%
- Percentage damage CHEAL (CHEAL Chenopodium album [7]; 125 g/ha): 30%
- Percentage damage AMARE ([8]; 125 g/ha): 70%
- Percentage damage POLCO ([9]; 125 g/ha): 0%
- Percentage damage KCHSC (KCHSC Kochia scoparia [10]; 125 g/ha): 60%
- Percentage damage EPHHL ([11]; 125 g/ha): 100%
- Percentage damage IPOHE (IPOHE Ipomoea hederacea [12]; 125 g/ha): 30%
- pest or weed control at 125 g/ha ([13]; 125 g/ha): 100%
- pest or weed control at 125 g/ha (SIDSP Sida spinosa [14]; 125 g/ha): 90%
- plant injury at 125 g/ha (GLXMA Soybean [15]; 125 g/ha): 100%
- pest or weed control at 125 g/ha ([16]; 125 g/ha): 100%
- pest or weed control at 125 g/ha (GALAP Galium aparine [17]; 125 g/ha): 90%
- pest or weed control at 125 g/ha (SINAR Sinapis arvensis [18]; 125 g/ha): 90%
- pest or weed control at 125 g/ha (CHEAL Chenopodium album [24]): 90%
- pest or weed control at 125 g/ha ([19]; 125 g/ha): 100%
- pest or weed control at 125 g/ha ([20]; 125 g/ha): 90%
- pest or weed control at 125 g/ha (KCHSC Kochia scoparia [21]; 125 g/ha): 90%
- pest or weed control at 125 g/ha ([22]; 125 g/ha): 100%
- pest or weed control at 125 g/ha (IPOHE Ipomoea hederacea [23]; 125 g/ha): 90%
- pest or weed control at 125 g/ha (VERPE Veronica persica): 10%
